Values joined by “and” are separate entries in the source; they are usually repeats but may differ in a detail not shown here. Identical values can stand only once. “Also recorded” adds a separate entry of the source. Blank lines part the entries; values can stand above or below the compound they belong to.
Tests used:
[1] = system: acetic acid-induced writhing; experiment: Analgesia, acetic acid writhing in mice (Assay #503900, Example 1); format: in vivo, mouse; settings: for No. of Writhing Average: group of 5 mice; for % Inhibition: relative to vehicle control; for No. of Writhing Individual: single mice
Description: Tranilast was evaluated for possible analgesic activity in the mouse acetic acid-induced writhing model. Tranilast at 100, 200 and 400 mg/kg was administered orally (PO) 1 hour before intraperitoneal injection of acetic acid (0.5%, 20 ml/kg).
Tranilast, provided by Angiogen Pharmaceuticals Pty. Ltd., was dissolved in 1% NaHCO3 (heated to 70° C.) and administered orally at doses of 100, 200 and 400 mg/kg at 60 minutes before acetic acid injection. The dosing volume was 10 ml/kg.
Male CD-1 (Crl.) derived mice weighing 24±2 g were provided by BioLasco Taiwan (under a Charles River Laboratories Technology licensee). Space allocation for 10 animals was 29×18×13 cm. Mice were housed in APEC^R cages. All animals were maintained in a controlled temperature (22° C.-24° C.) and humidity (60%-70%) environment with 12 hours light dark cycles for at least one week in MDS Pharma Services—Taiwan Laboratory prior to use. Free access to standard lab chow for mice (Lab Diet, Rodent Diet, PMI Nutrition International, USA) and tap water was granted. All aspects of this work including housing, experimentation and disposal of animals were performed in general accordance with the Guide for the Care and Use of Laboratory Animals (National Academy Press, Washington, D.C., 1996).
(§1) Test substance was administered PO (400, 200 and 100 mg/kg) to groups of 5 CD-1 (Crl.) derived male or female mice weighing 22±2 g one hour before injection of acetic acid (0.5%, 20 ml/kg IP). Reduction in the number of writhes by 50 percent or more (≧50%) per group of animals observed during the 5 to 10 minute period after acetic acid administration, relative to the vehicle-treated control group, indicates possible analgesic activity.
Test substance was administered orally to groups of 5 mice 60 minutes before injection of Acetic Acid (0.5%, 20 ml/kg IP). The number of writhing per group of animals observed during the 5 to 10 minutes period after acetic acid challenge was observed. Reduction in the number of writhings by 50 percent or more (≧50%) relative to the vehicle-treated control group indicates possible analgesic activity.

Cyclooxygenase COX-1 = Cyclooxygenase COX-1 (Homo sapiens, UniProt P23219); experiment: biochemical
Cyclooxygenase COX-1, sequence (P23219 24-599): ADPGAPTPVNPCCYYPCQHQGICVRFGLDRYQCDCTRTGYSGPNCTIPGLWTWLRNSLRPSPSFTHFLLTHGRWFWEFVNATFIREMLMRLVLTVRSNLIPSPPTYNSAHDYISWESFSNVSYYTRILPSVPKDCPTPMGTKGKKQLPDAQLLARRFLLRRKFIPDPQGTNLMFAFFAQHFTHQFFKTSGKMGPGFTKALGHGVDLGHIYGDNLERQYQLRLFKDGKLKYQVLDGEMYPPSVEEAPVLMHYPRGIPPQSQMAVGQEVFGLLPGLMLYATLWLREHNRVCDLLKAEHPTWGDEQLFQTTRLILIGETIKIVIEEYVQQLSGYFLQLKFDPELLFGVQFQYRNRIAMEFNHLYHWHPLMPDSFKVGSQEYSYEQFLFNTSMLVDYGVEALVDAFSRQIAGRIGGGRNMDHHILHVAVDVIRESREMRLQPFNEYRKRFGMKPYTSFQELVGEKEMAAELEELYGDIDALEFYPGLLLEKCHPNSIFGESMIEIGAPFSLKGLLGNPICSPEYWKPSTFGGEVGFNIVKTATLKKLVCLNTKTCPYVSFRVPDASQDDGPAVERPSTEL
Description: Methods employed in this study have been adapted from the scientific literature to maximize reliability and reproducibility. […] Assays were performed under conditions described in the accompanying “Methods” section of this report. The literature references for each assay are in the “Literature References” section. If either of these sections were not originally requested with the accompanying report, please contact us at the number below for a printout of either of these report sections.
Biochemical assay results are presented as the percent inhibition of specific binding or activity throughout the report.

IL-10 = experiment: Serum IL-10 in mice with established CIA (ELISA); format: in vivo; settings: treated for 10 days, 100, 200 or 400 mg/kg/day, listed as 3,4-DAA
Description: FIG. 3 is a graphical representation depicting that treatment with 3,4-DAA leads to increased IL-10 levels in vivo. Mice with established CIA were treated with 3,4-DAA or vehicle (n=7) for 10 days (see FIG. 2), then bled. IL-10 in the sera was measured by ELISA.

[2] = system: anti-type II collagen IgG1 and IgG2a; experiment: Serum anti-collagen antibody levels (ELISA); format: in vivo, DBA/1 mice
Description: ELISA plates (Nunc, Uxbridge, UK) were coated with 2 μg/ml of bovine CII dissolved overnight in Tris Buffer (0.05 M Tris, containing 0.2 M NaCl, pH 7.4) blocked with 2% bovine serum albumin (BSA) and then incubated with serial dilutions of test sera. A reference sample was included on each plate. Bound total IgG, IgG1 or IgG2a was detected by incubation with HRP-conjugated sheep anti-mouse IgG, IgG1 or IgG2a, followed by TMB substrate. Optical density was measured at 450 nm.

[3] = 11,484 patients with restenosis following percutaneous coronary intervention; cited from earlier work
[4] = system: acetic acid-induced writhing; experiment: Analgesia, acetic acid writhing in mice (Example 3); format: in vivo, mouse; settings: for No. of Writhing Average: group of 5 mice; for % Inhibition: relative to vehicle control; for No. of Writhing Individual: single mice
Description: 3-Hydroxyanthranilic acid was evaluated for possible analgesic activity in mouse acetic acid-induced pain response assay.
3-Hydroxyanthranilic acid was purchased from Sigma (USA) by MDS Pharma Services-Taiwan Ltd. and administered orally at the doses of 400, 200 and 100 mg/kg for analgesia, acetic acid-induced writhing assay. 2% Tween 80 was used as the vehicle.
Male CD-1 (Crl.) mice provided by BioLasco Taiwan (under Charles River Laboratories Technology Licensee) were used. Space allocation for 10 animals was 29×18×13 cm. All animals were maintained in a controlled temperature (23° C.-24° C.) and humidity (60%-70%) environment with 12 hours light dark cycles for at least one week in MDS Pharma Services—Taiwan Laboratory prior to use. Free access to standard lab chow for Mice (LabDiet Rodent Diet, PMI Nutrition International, USA) and tap water was granted. All aspects of this work including housing, experimentation and disposal of animals were performed in general accordance with the Guide for the Care and Use of Laboratory Animals (National Academy Press, Washington, D.C., 1996).
as §1, with “administered orally” for “administered PO (400, 200 and 100 mg/kg)”, “weighing 24±2 g, 2” for “weighing 22±2 g one”, “to a” for “to the”
Test substance was administered orally to groups of 5 mice 1 hour before injection of 0.5% Acetic Acid (20 ml/kg IP). The number of writhing per group of animals observed during the 5 to 10 minute period after acetic acid challenge was observed. Reduction in the number of writhing by 50 percent or more (≧50%) relative to the vehicle-treated control group indicates possible analgesic activity.

[5] = 100 mg/kg PO, 60 minutes before acetic acid
[6] = 200 mg/kg PO, 60 minutes before acetic acid
[7] = 400 mg/kg PO, 60 minutes before acetic acid

effect on the activity of the COX-1 enzyme (Cyclooxygenase COX-1): no effect | inhibition at 10 µM (Cyclooxygenase COX-1): -2%
SMILES: COc1ccc(/C=C/C(=O)Nc2ccccc2C(=O)O)cc1OC [Tranilast, 2-[[3-(3,4-dimethoxyphenyl)-1-oxo-2-propenyl]amino]benzoic acid]
No. of Writhing Average [1, 5]: 15 | % Inhibition [1, 5]: 12% | No. of Writhing Individual [1, 5]: 19 and 15 and 16 and 17 and 9 | No. of Writhing Average [1, 6]: 13 | % Inhibition [1, 6]: 24% | No. of Writhing Individual [1, 6]: 10 (2×) and 19 and 9 and 16 | No. of Writhing Individual ([1]; 400 mg/kg PO, 60 minutes before acetic acid (0.5%, 20 ml/kg IP), 5 to 10 minute period): 3 and 16 and 2 and 10 and 14 | No. of Writhing Average [1, 7]: 9 | % Inhibition [1, 7]: 47% | inhibition of acetic acid-induced writhing across doses ([1]; 100, 200 and 400 mg/kg PO): dose-dependent inhibition | circulating IL-10 levels (sera) (IL-10): dose-dependent increase; also recorded: increased | anti-collagen IgG1 or IgG2a levels in sera ([2]; 200 mg/kg/day from the day of immunisation): no change | anti-type II collagen IgG1 and IgG2a levels in sera ([2]; established CIA, 100, 200 or 400 mg/kg/day over 10 days): no differences | adverse cardiovascular events [3]: no significant increase

SMILES: Nc1c(O)cccc1C(=O)O [3-Hydroxyanthranilic acid]
No. of Writhing Average ([4]; 100 mg/kg PO): 13 | % Inhibition ([4]; 100 mg/kg PO): 0% | No. of Writhing Individual ([4]; 100 mg/kg PO): 18 and 12 (2×) and 13 and 10 | No. of Writhing Average ([4]; 200 mg/kg PO): 12 | % Inhibition ([4]; 200 mg/kg PO): 8% | No. of Writhing Individual ([4]; 200 mg/kg PO): 16 and 9 and 12 and 10 and 15 | No. of Writhing Individual ([4]; 400 mg/kg PO before acetic acid (0.5%, 20 ml/kg IP), 5 to 10 minute period): 5 (2×) and 6 and 14 and 12 | No. of Writhing Average ([4]; 400 mg/kg PO): 8 | % Inhibition ([4]; 400 mg/kg PO): 38% | significant analgesic activity (≧50% inhibition of writhing relative to vehicle) ([4]; 400, 200 and 100 mg/kg PO): did not demonstrate any significant analgesic activity

From US20090197957A1, “Methods and compositions for the treatment of pain” (Nuon Therapeutics, Inc., priority 2005, published 2009)
